CC(=O)Nc1ccc(O)cc1
solubility (mole fraction)
Conditions	298.15 K	303.15 K	308.15 K	313.15 K	318.15 K	323.15 K	328.15 K	333.15 K
in transcutol	0.111	0.118	0.126	0.134	0.144	0.153	0.166	0.178
in water	0.0016	0.0019	0.0023	0.0027	0.0033	0.004	0.0047	0.0055

— BigSolDB 2.1
